Measured values: ChEMBL document CHEMBL6109147, “Discovery of Potent STING Inhibitors Bearing a Difluorobenzodioxol Structural Motif as Potent Anti-Inflammatory Agents” (J Med Chem, 2025)
Activity calls are given as the source filed them. The calls are words filed in the database; no cut-off is given here.

Tests used:
[1] = biological target: Stimulator of interferon genes protein (Homo sapiens) (UniProt Q86WV6); experiment: Inhibition of STING downstream signalling in human THP1-Dual cells assessed as inhibition of MSA-2 induced IP-10 secretion at 0.3 to 3 uM pre-treated for 1 hr followed by stimulated with MSA-2 measured after 24 hrs by ELISA; assay type: cell-based; settings: dose 0.3-3 µM, time 25.0 hrs
[2] = biological target: Stimulator of interferon genes protein (Homo sapiens) (UniProt Q86WV6); experiment: Inhibition of STING downstream signalling in human THP1-Dual cells assessed as inhibition of cGAMP induced IFN-beta mRNA expression at 0.3 to 3 uM pre-treated for 1 hr followed by stimulated with cGAMP measured after 4 hrs by real-time PCR analysis; assay type: cell-based; settings: dose 0.3-3 µM, time 5.0 hrs
Mus musculus [3] = experiment: Anti-inflammatory activity in TREX1 D18N mouse model assessed as reduction in Isg56 mRNA expression in kidney at 10 mg/kg, ip measured after 2 weeks; assay type: functional, organism-based
Mus musculus [4] = experiment: Anti-inflammatory activity in TREX1 D18N mouse model assessed as reduction in Ifn-beta mRNA expression in heart at 10 mg/kg, ip measured after 2 weeks; assay type: functional, organism-based
[5] = biological target: Stimulator of interferon genes protein (Homo sapiens) (UniProt Q86WV6); experiment: Inhibition of STING downstream signalling in human THP1-Dual cells assessed as inhibition of MSA-2 induced IFN-beta mRNA expression at 0.3 to 3 uM pre-treated for 1 hr followed by stimulated with MSA-2 measured after 4 hrs by real-time PCR analysis; assay type: cell-based; settings: dose 0.3-3 µM, time 5.0 hrs
Mus musculus [6] = experiment: Anti-inflammatory activity in TREX1 D18N mouse model assessed as reduction in Ifn-beta mRNA expression in kidney at 10 mg/kg, ip measured after 2 weeks; assay type: functional, organism-based
[7] = biological target: Stimulator of interferon genes protein (Homo sapiens) (UniProt Q86WV6); experiment: Inhibition of STING in human THP1-Dual cells assessed as inhibition of HT-DNA induced cGAS activation measured after 1 hr incubation followed by stimulated with HT-DNA by Western blotting analysis; assay type: cell-based
Mus musculus [8] = experiment: Anti-inflammatory activity against Cisplatin induced C57BL/6 mouse kidney inflammation model assessed as suppression of Cisplatin induced Cxcl-10 mRNA level in kidney at 5 mg/kg, ip treated for 3 days by real-time PCR analysis; assay type: functional, organism-based; settings: time 3.0 day
Mus musculus [9] = experiment: Anti-inflammatory activity in TREX1 D18N mouse model assessed as reduction in Ccl5 mRNA expression in heart at 10 mg/kg, ip measured after 2 weeks; assay type: functional, organism-based
Mus musculus [10] = experiment: Anti-inflammatory activity against MSA-2 induced C57BL/6 mouse inflammation model assessed as inhibition of MSA-2 induced Isg56 RNA expression in kidney at 10 mg/kg, ip pre-treated for 1 hr followed by stimulated with MSA-2 for 4 hrs by real-time PCR analysis; assay type: functional, organism-based; settings: time 5.0 hrs
Mus musculus [11] = experiment: Anti-inflammatory activity in TREX1 D18N mouse model assessed as reduction in Isg15 mRNA expression in kidney at 10 mg/kg, ip measured after 2 weeks; assay type: functional, organism-based
[12] = Metabolic stability in human liver microsomes assessed as microsomal intrinsic clearance; assay type: ADME, Microsome; settings: read-out: CLH
[13] = biological target: T1, Stimulator of interferon genes protein (Mus musculus) (UniProt Q3TBT3); experiment: Inhibition of STING downstream signalling in mouse BMDM cells assessed as inhibition of MSA-2 induced Ccl5 mRNA level pre-treated for 1 hr followed by stimulated with MSA-2 measured after 4 hrs by real-time PCR analysis; assay type: cell-based; settings: dose 0.3-3 µM, time 5.0 hrs
T1 sequence (whole entry): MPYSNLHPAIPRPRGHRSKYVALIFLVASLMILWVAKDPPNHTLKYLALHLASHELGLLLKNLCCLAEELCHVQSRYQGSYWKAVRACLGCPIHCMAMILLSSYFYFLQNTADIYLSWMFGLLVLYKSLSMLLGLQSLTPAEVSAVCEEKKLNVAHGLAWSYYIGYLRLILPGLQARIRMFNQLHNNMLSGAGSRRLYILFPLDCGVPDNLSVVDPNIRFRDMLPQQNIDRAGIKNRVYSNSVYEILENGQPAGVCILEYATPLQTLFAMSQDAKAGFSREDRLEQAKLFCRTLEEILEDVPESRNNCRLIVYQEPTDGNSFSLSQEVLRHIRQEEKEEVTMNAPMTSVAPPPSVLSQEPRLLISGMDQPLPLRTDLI

Mus musculus [14] = experiment: Anti-inflammatory activity against Cisplatin induced C57BL/6 STING-KO mouse kidney inflammation model assessed as prevention of Cisplatin induced glomerular injury at 5 mg/kg, ip treated for 3 days; assay type: functional, organism-based; settings: time 3.0 day
THP1-Dual = experiment: Cytotoxicity against human THP1-Dual cells assessed as cell viability measured after 24 hrs by CCK8 assay; assay type: functional, cell-based
Mus musculus [15] = experiment: Anti-inflammatory activity against Cisplatin induced C57BL/6 mouse kidney inflammation model assessed as prevention of Cisplatin induced glomerular injury at 5 mg/kg, ip treated for 3 days; assay type: functional, organism-based; settings: time 3.0 day
HEK293 = experiment: Protection of Cisplatin induced apoptosis in human HEK293 cells assessed as apoptotic cells at 10 uM measured after 72 hrs by flow cytometry; assay type: functional, cell-based
[16] = Metabolic stability in rat liver microsomes assessed as half life; assay type: ADME, Microsome
Mus musculus [17] = experiment: Anti-inflammatory activity against Cisplatin induced C57BL/6 mouse kidney inflammation model assessed as suppression of Cisplatin induced Isg15 mRNA level in kidney at 5 mg/kg, ip treated for 3 days by real-time PCR analysis; assay type: functional, organism-based; settings: time 3.0 day
[18] = tested on: Stimulator of interferon genes protein (Homo sapiens), Q86WV6 [UNDEFINED MUTATION]; experiment: Inhibition of human STING expressed in 293T-Dual-hSTING-293Q cells assessed as reduction in cGAMP-induced secreted luciferase reporter of interferon stimulated gene (ISG) measured after 24 hrs incubation; assay type: cell-based
[19] = biological target: Stimulator of interferon genes protein (Homo sapiens) (UniProt Q86WV6); experiment: Inhibition of STING downstream signalling in human THP1-Dual cells assessed as inhibition of MSA-2 induced IFN-beta secretion at 0.3 to 3 uM pre-treated for 1 hr followed by stimulated with MSA-2 measured after 24 hrs by ELISA; assay type: cell-based; settings: dose 0.3-3 µM, time 25.0 hrs
Mus musculus [20] = experiment: Anti-inflammatory activity against MSA-2 induced C57BL/6 mouse inflammation model assessed as inhibition of MSA-2 induced IL-6 level in plasma at 10 mg/kg, ip pre-treated for 1 hr followed by stimulated with MSA-2 for 4 hrs by ELISA; assay type: functional, organism-based; settings: time 5.0 hrs
[21] = MRT (0 to infinity) in Sprague-Dawley rat at 1 mg/kg, iv; assay type: ADME, organism-based; settings: Sprague-Dawley, in vivo
[22] = biological target: Stimulator of interferon genes protein (Homo sapiens) (UniProt Q86WV6); experiment: Inhibition of STING downstream signalling in human THP1-Dual cells assessed as inhibition of HT-DNA induced ISG56 mRNA expression at 0.3 to 3 uM pre-treated for 1 hr followed by stimulated with HT-DNA measured after 4 hrs by real-time PCR analysis; assay type: cell-based; settings: dose 0.3-3 µM, time 5.0 hrs
[23] = MRT (0 to infinity) in Sprague-Dawley rat at 3 mg/kg, po; assay type: ADME, organism-based; settings: in vivo
[24] = Metabolic stability in mouse liver microsomes assessed as half life; assay type: ADME, Microsome
[25] = Metabolic stability in mouse liver microsomes assessed as microsomal intrinsic clearance; assay type: ADME, Microsome; settings: read-out: CLH
[26] = biological target: Stimulator of interferon genes protein (Homo sapiens) (UniProt Q86WV6); experiment: Inhibition of STING in human THP1-Dual cells assessed as inhibition of MSA-2 induced ISG signalling measured after 1 hr incubation followed by stimulated with MSA-2 by Western blotting analysis; assay type: cell-based
[27] = biological target: Stimulator of interferon genes protein (Homo sapiens) (UniProt Q86WV6); experiment: Inhibition of human wild type STING (R232) expressed in human THP-1 Dual cells assessed as reduction in cGAMP-induced IL-6 expression; assay type: cell-based; settings: 293-Dual hSTING-R232

Chain of Stimulator of interferon genes protein (Homo sapiens) (Q86WV6 whole entry): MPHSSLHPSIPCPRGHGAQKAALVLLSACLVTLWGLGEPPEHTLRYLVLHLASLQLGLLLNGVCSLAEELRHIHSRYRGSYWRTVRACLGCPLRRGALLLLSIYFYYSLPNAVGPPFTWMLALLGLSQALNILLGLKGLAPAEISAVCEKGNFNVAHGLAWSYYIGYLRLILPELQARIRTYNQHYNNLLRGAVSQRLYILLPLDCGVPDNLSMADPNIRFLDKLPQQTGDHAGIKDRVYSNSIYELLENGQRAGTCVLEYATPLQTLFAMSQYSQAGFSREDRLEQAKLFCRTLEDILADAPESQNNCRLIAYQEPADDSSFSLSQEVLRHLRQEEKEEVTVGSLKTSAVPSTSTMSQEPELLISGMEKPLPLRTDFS
Chain of Stimulator of interferon genes protein (Homo sapiens), Q86WV6 [UNDEFINED MUTATION] (Q86WV6 whole entry, looked up, change not shown): as the sequence (Q86WV6 whole entry) above

inhibition [1]: Active
inhibition [2]: Active
inhibition [5]: Active
inhibition [7]: Dose-dependent-effect
microsomal CLint [12]: 41 µL/min/mg
inhibition [13]: Dose-dependent-effect
half-life [16]: 38.5 min
inhibition [18]: Active
inhibition [19]: Active
MRT inf [21]: 22.8 min
inhibition [22]: Active
MRT [23]: 460 min
half-life [24]: 26.7 min
microsomal CLint [25]: 52 µL/min/mg
inhibition [26]: Dose-dependent-effect
inhibition [27]: Active
SMILES: N#CC/C=C/c1ccc2[nH]cc(NC(=O)Nc3ccc4c(c3)OC(F)(F)O4)c2c1
Activity (Mus musculus [3]): Active
Activity (Mus musculus [4]): Active
Activity (Mus musculus [6]): Active
inhibition (Mus musculus [8]): Active
Activity (Mus musculus [9]): Active
inhibition (Mus musculus [10]): Active
Activity (Mus musculus [11]): Active
Activity (Mus musculus [14]): inactive
inhibition (THP1-Dual): inactive
inhibition (Mus musculus [15]): inactive
Activity (HEK293): Active
inhibition (Mus musculus [17]): Active
inhibition (Mus musculus [20]): Active
